From US20250313555A1, “2-SUBSTITUTED THIAZOLE AND BENZOTHIAZOLE COMPOSITIONS AND METHODS AS DUX4 INHIBITORS” (ALTAY THERAPEUTICS, INC., priority 2022, published 2025) come the findings set out here.

Bounds are passed on as bounds.

Assay type in all cases: cell-based
Data set [1] has as its system MBD3L2 RNA. Kind of data set: RNA isolation and qPCR to determine MBD3L2 RNA levels in FSHD cells. To be noted: 48 hrs. As for the experimental part: Protocol for RNA Isolation and qPCR to Determine MBD3L2 RNA Levels The protocol describes the process of isolating RNA from cultured cells, converting the RNA to complementary DNA (cDNA), and measuring target gene expression using a quantitative polymerase chain reaction (qPCR). The seed FSHD cells were dispensed into a six-well dish. One day after seeding, the DUX4 inhibitor (11 μM or 3.6 μM/well) was added to the cells. After another 48 hrs, the old media was removed from the cells. The cells were washed with 2 mL of warm phosphate buffered saline (PBS). The PBS was aspirated, and the cells were lysed in each well with 350 μL of RLT buffer+3.5 μL of beta-mercaptoethanol (BME). The lysates were added to fresh, RNAse-free, labeled Eppendorf tubes. The cells were then physically disrupted for […] at level 4 of the bead disrupter to ensure the release of the RNA. The RNA was collected according to standard procedures (i.e., Qiagen kit instructions) as discussed below. The RNA concentrations were standardized to […]. In a PCR tube, RNA (2 μg) in a new Eppendorf tube was diluted with RNase-free water to a 9.5 μL final volume of […] RNA. DNase was used to remove any DNA contamination. A DNase Master Mix was prepared from 1.5 μL/reaction DNase solution (1 unit/μL, Promega), 3 μL/reaction 5× RT buffer (i.e., 250 mM Tris-HCl (pH 8.3), 375 mM KCl, 15 mM MgCl2, and 500 μl 0.1 M DTT; Promega MMLV), and 1 μL/reaction RNase inhibitor solution (RNasin, 40 units/μL, Promega). The DNase Master Mix was added to the standardized RNA samples (5.5 μL/sample). The samples were mixed by agitation and briefly spun down by centrifuge. The samples were heated to 37° C. for 60 min, 80° C. for 5 min, and then cooled to 4° C. The samples were stored on ice until the addition of the next reagents. An RT Reaction Master Mix was prepared from 5 μL/reaction 5× RT buffer, 2 μL/reaction dNTP solution (2.5 mM in each nucleotide), 1 μL/reaction RNase inhibitor solution (RNasin, 40 units/μL, Promega), 1.6 μL/reaction M-MLV reverse transcriptase (200 units/μL, Promega), and 13.4 μL/reaction deionized, RNase-free water. The RT Reaction Master Mix was cooled on ice until use. A 50 μM solution of Random Primer 6 random hexanucleotides (2 μL) was added to each sample. The samples were mixed by agitation and briefly spun down by centrifuge. The samples were heated to 70° C. for 5 min and then cooled to 4° C. The RT Reaction Master Mix (23 μL) was added to each sample. The samples were mixed by agitation and briefly spun down by centrifuge. To convert the RNA to cDNA, the samples were heated to 42° C. for 60 min, 95° C. for 5 min, and then cooled to 4° C. The cDNA product mixture was diluted 5:1 with deionized water (40 μL+160 μL). The samples were run in triplicate, with a methyl-CpG-binding protein 3-like 2 (MBD3L2) target primer and a eukaryotic translation elongation factor 1-alpha (EEF1A) control primer. An qPCR Master Mix was prepared for each primer and stored on ice (4° C.) until use. The qPCR Master Mix included 10 μL/reaction SYBR Green Mix (2×) (ThermoFisher), 1 μL/reaction of the primer mix (i.e., the MBD3L2 PCR Primer mix or the EEF1A Primer mix), and 4 μL/reaction deionized, RNase-free water. To set up the qPCR plate, 15 μL of the appropriate qPCR Master Mix was added to the appropriate wells for each target/primer. After all the targets/primers have been added to the wells, 5 μL of the sample was added to the corresponding wells so that each well is 20 μL total. The plate was covered with a clear sheet. An qPCR run was set up (QuantStudio 5) with the following cycle: […]

Data set [2] in a line: Cell cytotoxicity 50 assay (CC50), HEK cells. To be noted: human. As for the experimental part: (§1) Cell Cytotoxicity 50 Assay Protocol (CC50) Into a deep well block (DWB), the media for the appropriate cell line (450 μL/well) was added into wells 1-10. Into DWB well 2, 10 mM of drug solution (13.5 μL) was added, followed by an additional volume of the medium (225 μL). The well was pipetted up/down four times. A portion (225 μL) was transferred to well 3, and this process was repeated up to well 10. Using a multichannel pipet, a smaller portion (50 μL/well) was removed from all wells in the DWB and then dispensed on top of the cells in each corresponding row. After adding the drug, the plate was incubated at 37° C. for 72 h. Using a multi-channel pipet, pre-warmed cell titer glo reagent (Promega) (100 μL) was added into every well. After 5 minutes, the total luminescence was measured with a luminometer. CC50 was determined with GraphPad prism template.

Data set [3] is described as follows: Cell cytotoxicity 50 assay (CC50), MB200 cells, cell titer glo. The conditions noted are these: human. As for the experimental part: as §1, with “(CC50) MB200 cells were grown until 80% confluent in F10 media supplemented with rhFGF basic (10 ng/ml), 15% fetal bovine serum, 1% penicillin streptomycin, 1% amphotericin B, and 1 μM dexamethasone. Adherent MB200 cells growing on 10 cm plate were then trypsinized with 1 ml of trypsin. Once the cells detached from the plate, F10 media (10 mL) was added, and the cells were strained through a 70 μm cell strainer. The cells were counted using a mixture of 10 μL cell suspension with 10 μL of trypan blue. Once the total number of cells were counted, a dilution of 200 k/mL was prepared, and the cells were seeded with 10 k cells/well in a 96-well plate in triplicate, making sure to avoid seeding cells in the edges of the plate to avoid edge effects. Using a multichannel pipet, the 200 k/mL cell dilution (50 μL/well) was added into wells B2-B11, C2-C11, and D2-D11 in triplicate.” for “(CC50)”
On the technique in general: ATP-based viability assays read luminescence as a measure of living cells.

Take `CC(=O)NCCC(=O)Nc1ccc(-c2nc3ccccc3s2)cc1` [Compound 38]: the “qPCR MBD3L2 Inhib at 11 µM” value in data set [1] is listed as “YES”. The CC50 at 72 h in data set [2] and in data set [3] was more than 10 µM each time.
Regarding `O=C(CCc1nnc[nH]1)Nc1ccc(-c2nc3ccccc3s2)cc1` [Compound 39], in data set [1], the “qPCR MBD3L2 Inhib at 11 µM” value is “YES”. Besides, the CC50 at 72 h in data set [2] and in data set [3] was more than 10 µM throughout.
Consider `O=C(CCc1cnn[nH]1)Nc1ccc(-c2nc3ccccc3s2)cc1` [Compound 40], for which the “qPCR MBD3L2 Inhib at 11 µM” value in data set [1] is “YES”. The CC50 at 72 h in data set [2] and in data set [3] was more than 10 µM each time.
Consider `O=C(CCCN1C(=O)CCC1=O)Nc1ccc(-c2nc3ccccc3s2)cc1` [Compound 41], for which the “qPCR MBD3L2 Inhib at 11 µM” value in data set [1] is “YES”. Also, the CC50 at 72 h in data set [2] and in data set [3] was more than 10 µM in each case.
As for `CC(=O)NCCC(=O)Nc1ccc(-c2nc3cc(F)ccc3s2)cc1` [Compound 44], the “qPCR MBD3L2 Inhib at 11 µM” value in data set [1] was “YES”. Also, the CC50 at 72 h in data set [2] and in data set [3] was more than 10 µM in each case.
`O=C(CCCN1C(=O)CCC1=O)NC1CC=C(c2nc3ccccc3s2)CC1` (stereo not drawn) [Compound 46]: the “qPCR MBD3L2 Inhib at 11 µM” value in data set [1] is “YES”. In addition, the CC50 at 72 h in data set [2] and in data set [3] was more than 10 µM each time.
With `CC(=O)NCCCC(=O)Nc1ccc(-c2nc3ccccc3s2)cn1` [Compound 49], in data set [1], the “qPCR MBD3L2 Inhib at 11 µM” value is reported as “YES”. The CC50 at 72 h in data set [2] and in data set [3] was more than 10 µM in each case.
Take `O=C(CCCc1cccnc1)Nc1ccc(-c2nc3ccccc3s2)cc1` [Compound 52]: in data set [1], the “qPCR MBD3L2 Inhib at 11 µM” value is recorded as “YES”. Also, the CC50 at 72 h in data set [2] and in data set [3] was more than 10 µM in each case.
Regarding `CC(=O)NCCC(=O)Nc1ccc(-c2nc3cc(C)ccc3s2)cc1` [Compound 53], the “qPCR MBD3L2 Inhib at 11 µM” value in data set [1] is “YES”. The CC50 at 72 h in data set [2] and in data set [3] was more than 10 µM in each case.
Turning to `N#Cc1ccc2nc(-c3ccc(NC(=O)CCN4C(=O)CCC4=O)cc3)sc2c1` [Compound 54], the “qPCR MBD3L2 Inhib at 11 µM” value in data set [1] was “YES”. Further, the CC50 (as a rule, the concentration giving 50% cytotoxicity) at 72 h is more than 10 µM in data set [2] and 1 to 10 µM in data set [3].
On the same counts, the results for `O=C(CCc1cncnc1)Nc1ccc(-c2nc3ccccc3s2)cc1` [Compound 55] are “YES”, more than 10 µM and more than 10 µM.
On the same counts, the results for `CC(=O)NC(C)CCC(=O)Nc1ccc(-c2nc3ccccc3s2)cc1` (stereo not drawn) [Compound 56] are “YES”, more than 10 µM and more than 10 µM.
On the same counts, the results for `CC(=O)NCCCC(=O)Nc1cnc(-c2nc3ccccc3s2)nc1` [Compound 59] are “YES”, more than 10 µM and more than 10 µM.
With `O=C(CCCc1cccnc1)Nc1ccc(Cc2nc3ccccc3s2)cc1` [Compound 60], the “qPCR MBD3L2 Inhib at 11 µM” value in data set [1] is given as “YES”. Besides, the CC50 at 72 h in data set [2] and in data set [3] was more than 10 µM in each case.
`O=C(CCCc1cccnc1)NC1CCC(c2nc3ccccc3s2)CC1` (stereo not drawn) [Compound 61]: the “qPCR MBD3L2 Inhib at 11 µM” value in data set [1] is on record as “YES”. Also, the CC50 at 72 h in data set [2] and in data set [3] was more than 10 µM in each case.
Consider `O=C(CCCc1cccnc1)Nc1coc(-c2nc3ccccc3s2)c1` [Compound 62], for which the “qPCR MBD3L2 Inhib at 11 µM” value in data set [1] was “YES”. Also, the CC50 at 72 h in data set [2] and in data set [3] was more than 10 µM throughout.
Regarding `O=C(CCCc1cnco1)Nc1ccc(-c2nc3cc(F)ccc3s2)cc1` [Compound 64], the “qPCR MBD3L2 Inhib at 11 µM” value in data set [1] was “YES”. In addition, the CC50 at 72 h in data set [2] was 1 to 10 µM; in data set [3], more than 10 µM.
The matching figures for `O=C(CCc1cnco1)Nc1ccc(-c2nc3cc(F)ccc3s2)cc1` [Compound 65]: “YES”, more than 10 µM and more than 10 µM.
On the same counts, the results for `O=C(CCCc1cnco1)NC1CCC(c2nc3ccccc3s2)CC1` (stereo not drawn) [Compound 67] are “YES”, more than 10 µM and more than 10 µM.
The matching figures for `CC(=O)NCCCCC(=O)Nc1ccc(-c2nc3ccccc3s2)cc1` [Compound 73]: “YES”, more than 10 µM and more than 10 µM.
With `CC(=O)NCCCNC(=O)c1ccc(-c2nc3cc(F)ccc3s2)cc1` [Compound 74], in data set [1], the “qPCR MBD3L2 Inhib at 11 µM” value was “YES”. Besides, the CC50 at 72 h in data set [2] and in data set [3] was more than 10 µM in each case.
Take `O=C(CCCc1cccnc1)Nc1ccc(-c2nc3ccccc3s2)o1` [Compound 75]: in data set [1], the “qPCR MBD3L2 Inhib at 11 µM” value was “YES”. The CC50 at 72 h in data set [2] and in data set [3] was more than 10 µM each time.
`CC(=O)NCCCC(=O)Nc1ccc(-c2nc3ccccc3s2)o1` [Compound 76]: the “qPCR MBD3L2 Inhib at 11 µM” value in data set [1] was “YES”. The 50% cytotoxic concentration (CC50) at 72 h in data set [2] and in data set [3] was more than 10 µM throughout.
On to `CC(=O)NC/C=C/C(=O)Nc1ccc(-c2nc3ccccc3s2)cc1` [Compound 77], for which, in data set [1], the “qPCR MBD3L2 Inhib at 11 µM” value is listed as “YES”. For the same compound, the CC50 at 72 h in data set [2] and in data set [3] was more than 10 µM each time.
As for `O=C(CCCc1cnco1)Nc1ccc(-c2nc3ccccc3s2)nc1` [Compound 81], the “qPCR MBD3L2 Inhib at 11 µM” value in data set [1] is “YES”. In addition, the CC50 at 72 h in data set [2] and in data set [3] was more than 10 µM in each case.
In the case of `O=C(CCc1cccnc1)Nc1ccc(-c2nc3ccccc3s2)nc1` [Compound 83], the “qPCR MBD3L2 Inhib at 11 µM” value in data set [1] is “YES”. Further, the CC50 at 72 h in data set [2] and in data set [3] was more than 10 µM each time.
In the case of `CC(=O)NCCCC(=O)Nc1ccc(-c2nc3cc(F)c(F)cc3s2)cc1` [Compound 84], the “qPCR MBD3L2 Inhib at 11 µM” value in data set [1] was “YES”. For the same compound, the CC50 at 72 h in data set [2] and in data set [3] was more than 10 µM in each case.
